# Assay results: the supplement of paper PMC11061612
# Legend:
# [1] = system: MN-60 (B-Lymphoblastic Leukemia); test: Bliss excess, mean over the matrix (fraction); higher = more synergy
# In short: (§1)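 Cell lines in DMEM/F12 or RPMI with 10% FBS were plated in 1536-well plates, held 24 hours at 37°C, 5% CO2, then given two-drug dose matrices for 72 hours (DMSO typically 0.2%). Viability was read by CellTiter-Glo 2.0 luminescence and scaled as inhibition from 0 (vehicle wells) to 1 (blank wells). Combination Emax is the second-highest inhibition in the matrix; Bliss excess is observed combination effect minus expected EA + EB − EA·EB, EA and EB being single-agent effects.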
# [2] = system: MOG-G-CCM (Low Grade Glioma); test: as above
# In short: as §1
# [3] = system: PC-3 (Prostate Carcinoma); test: as above
# In short: as §1
# [4] = system: RD (Rhabdomyosarcoma); test: as above
# In short: as §1
# [5] = system: NCI-H929 (Plasma Cell Myeloma); test: as above
# In short: as §1
# [6] = system: COR-L279 (Small Cell Lung Carcinoma); test: as above
# In short: as §1
# [7] = system: NCI-H520 (Squamous Cell Lung Carcinoma); test: as above
# In short: as §1
# [8] = system: NCI-H661 (Non-Small Cell Lung Carcinoma); test: as above
# In short: as §1
# [9] = system: M059J (Glioblastoma); test: as above
# In short: as §1
# [10] = system: KU812 (Chronic Myelogenous Leukemia); test: as above
# In short: as §1
# [11] = system: ESO51 (Esophageal Adenocarcinoma); test: as above
# In short: as §1
# [12] = system: SJSA-1 (Osteosarcoma); test: as above
# In short: as §1
# [13] = system: SUP-B15 (B-Lymphoblastic Leukemia); test: as above
# In short: as §1
# [14] = system: KMS-12-BM (Plasma Cell Myeloma); test: as above
# In short: as §1
# [15] = system: IM-95 (Gastric Carcinoma); test: as above
# In short: as §1
# [16] = system: DMS-114 (Small Cell Lung Carcinoma); test: as above
# In short: as §1
# [17] = system: 8505C (Thyroid Gland Carcinoma); test: as above
# In short: as §1
# [18] = system: KY821 (Acute Myeloid Leukemia); test: as above
# In short: as §1
# [19] = system: VMRC-RCZ (Kidney Carcinoma); test: as above
# In short: as §1
# [20] = system: JHH-4 (Hepatocellular Carcinoma); test: combination Emax (second highest fraction inhibited in the dose matrix, 72 h); higher = more inhibition; extreme values may be limits of the assay
# In short: as §1
# 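Wherever Bliss excess, mean over the matrix is given: after 72 h of two-drug dosing.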
SMILES,Bliss excess [1],Bliss excess [2],Bliss excess [3],Bliss excess [4],Bliss excess [5],Bliss excess [6],Bliss excess [7],Bliss excess [8],Bliss excess [9],Bliss excess [10],Bliss excess [11],Bliss excess [12],Bliss excess [13],Bliss excess [14],Bliss excess [15],Bliss excess [16],Bliss excess [17],Bliss excess [18],Bliss excess [19],combination Emax [20]
"C[C@@H](c1ccc2nccn2c1)n1nnc2ncc(-c3cnn(C)c3)nc21 [Savolitinib] + Cc1c2c(nn1C)CSCc1cc(n(C)n1)CSc1cc(c3ccccc3c1)OCCCc1c(C(=O)O)n(C)c3c-2c(Cl)ccc13 [AZD5991] (first compound max 1 µM, 7x7, partner max 1 µM)",-0.0334,-0.0683,-0.0402,-0.0177,0.0063,0.0219,-0.0539,-0.0666,-0.0289,0.0064,-0.0013,-0.0714,-0.0555,-0.0168,-0.0166,-0.0755,-0.0324,-0.0415,-0.0297,0.182
"NC1(C(=O)N[C@@H](CCO)c2ccc(Cl)cc2)CCN(c2ncnc3[nH]ccc23)CC1 [Capivasertib] + CC(=O)c1c(C)c2cnc(Nc3ccc(N4CCNCC4)cn3)nc2n(C2CCCC2)c1=O [Palbociclib] (first compound max 10 µM, 7x7, partner max 10 µM)",-0.0365,-0.0389,0.0068,-0.0333,-0.0066,-0.0443,0.0018,0.0204,-0.0489,0.0662,-0.0475,-0.0445,-0.007,0.0977,0.0182,-0.0203,-0.0475,-0.0078,0.0321,0.466
"Cc1c2c(nn1C)CSCc1cc(n(C)n1)CSc1cc(c3ccccc3c1)OCCCc1c(C(=O)O)n(C)c3c-2c(Cl)ccc13 [AZD5991] + CC1(C)CCC(CN2CCN(c3ccc(C(=O)NS(=O)(=O)c4ccc(NCC5CCOCC5)c([N+](=O)[O-])c4)c(Oc4cnc5[nH]ccc5c4)c3)CC2)=C(c2ccc(Cl)cc2)C1 [Venetoclax] (first compound max 1 µM, 7x7, partner max 1 µM)",-0.031,-0.0199,-0.0312,0.0081,-0.033,0.0071,-0.0019,0.052,-0.0539,0.0353,-0.0008,-0.0941,0.0213,0.0301,0.0119,0.0306,-0.0253,0.0331,-0.0605,0.265
"CC1(C)CCC(CN2CCN(c3ccc(C(=O)NS(=O)(=O)c4ccc(NCC5CCOCC5)c([N+](=O)[O-])c4)c(Oc4cnc5[nH]ccc5c4)c3)CC2)=C(c2ccc(Cl)cc2)C1 [Venetoclax] + CCN(CCO)CCCOc1ccc2c(Nc3cc(CC(=O)Nc4cccc(F)c4)[nH]n3)ncnc2c1 [AZD2811] (first compound max 1 µM, 7x7, partner max 1 µM)",-0.0927,-0.0061,-0.0668,-0.0311,0.101,0.0501,0.0319,-0.0105,-0.0687,-0.0433,-0.0104,-0.0214,0.0132,0.0773,0.104,-0.0334,-0.0133,0.002,-0.0391,0.205
"CN(CCO)CC[C@H](CSc1ccccc1)Nc1ccc(S(=O)(=O)NC(=O)c2ccc(N3CCC([C@@H](O)c4ccccc4-c4ccc(Cl)cc4)CC3)cc2)cc1S(=O)(=O)C(F)(F)F [AZD4320] + C1CN(CCC1(C(=O)N[C@@H](CCO)C2=CC=C(C=C2)Cl)N)C3=NC=NC4=C3C=CN4 [Capivasertib] (first compound max 1 µM, 7x7, partner max 3 µM)",-0.0157,-0.0525,-0.053,-0.0764,-0.0088,0.0721,-0.0637,-0.0347,-0.0113,0.0154,-0.0434,0.0243,-0.0203,0.0181,-0.0545,-0.0066,-0.155,0.0157,-0.0429,0.0846
"Cc1c2c(nn1C)CSCc1cc(n(C)n1)CSc1cc(c3ccccc3c1)OCCCc1c(C(=O)O)n(C)c3c-2c(Cl)ccc13 [AZD5991] + Cc1cc2ncnn2cc1Nc1ncc2c(n1)n(C1CCOCC1)c(=O)n2C [AZD7648] (first compound max 1 µM, 7x7, partner max 10 µM)",0.0011,-0.0394,-0.135,-0.049,0.0091,0.0671,-0.0453,-0.0546,-0.0726,-0.0046,-0.0216,0.0585,0.0099,-0.0033,-0.0615,0.0346,-0.0125,-0.0302,-0.0405,0.262
"CC1(C)CCC(CN2CCN(c3ccc(C(=O)NS(=O)(=O)c4ccc(NCC5CCOCC5)c([N+](=O)[O-])c4)c(Oc4cnc5[nH]ccc5c4)c3)CC2)=C(c2ccc(Cl)cc2)C1 [Venetoclax] + C=CCn1c(=O)c2cnc(Nc3ccc(N4CCN(C)CC4)cc3)nc2n1-c1cccc(C(C)(C)O)n1 [AZD1775] (first compound max 1 µM, partner max 1 µM)",-0.0285,0.0303,0.0286,-0.0163,0.0499,-0.0349,-0.0031,-0.0588,-0.0663,0.0294,-0.0404,-0.0733,0.0509,0.0356,0.0197,0.0056,-0.0083,-0.0104,0.0418,0.343
"COc1cccc(OCCCN)c1-c1cc(Nc2cnc(C#N)cn2)n[nH]1 [Prexasertib] + Cc1cc2ncnn2cc1Nc1ncc2c(n1)n(C1CCOCC1)c(=O)n2C [AZD7648] (first compound max 1 µM, 7x7, partner max 10 µM)",0.0271,-0.0037,-0.036,-0.0283,-0.0864,0.0225,0.0278,-0.0543,-0.0178,-0.0891,-0.0081,-0.0326,-0.0406,0.0085,-0.0163,0.0127,0.0131,0.0276,-0.0074,0.62
"CCN(CCO)CCCOc1ccc2c(Nc3cc(CC(=O)Nc4cccc(F)c4)[nH]n3)ncnc2c1 [AZD2811] + C[C@@H]1COCCN1C2=NC(=NC(=C2)C3(CC3)[S@](=N)(=O)C)C4=C5C=CNC5=NC=C4 [AZD6738] (first compound max 1 µM, 7x7, partner max 10 µM)",-0.0215,-0.0116,-0.061,-0.0325,-0.0341,0.0322,-0.0834,-0.0567,-0.0138,-0.0764,-0.0567,-0.0348,-0.0468,0.0141,0.0291,-0.0301,-0.0514,0.105,-0.085,0.0985
"COc1nnc2ccc(N3CCC(c4ccc(OCCN5CCN(C)C(=O)[C@H]5C)cc4)CC3)nn12 [AZD5153] + Cc1c2c(nn1C)CSCc1cc(n(C)n1)CSc1cc(c3ccccc3c1)OCCCc1c(C(=O)O)n(C)c3c-2c(Cl)ccc13 [AZD5991] (first compound max 1 µM, 7x7, partner max 1 µM)",-0.0765,0.0248,-0.054,0.0267,-0.0142,0.08,-0.0174,0.031,-0.0072,-0.0007,-0.0093,-0.0673,0.0356,-0.0116,-0.0477,0.029,-0.0393,0.0104,-0.022,0.379
"CCc1c2c(nc3ccc(O)cc13)-c1cc3c(c(=O)n1C2)COC(=O)[C@]3(O)CC [SN-38] + CN(C)CCCOc1ccc(-c2ccc3ncc4c(c3c2)n(C2CCOCC2)c(=O)n4C)cn1 [AZD0156] (first compound max 0.3 µM, 7x7, partner max 1 µM)",0.0279,0.0143,-0.0306,-0.0329,-0.089,0.0163,0.0044,0.0286,-0.0104,-0.027,-0.031,-0.0469,-0.0408,0.0462,0.0208,0.0147,0.014,0.055,-0.0124,0.905
"CCN(CCO)CCCOc1ccc2c(Nc3cc(CC(=O)Nc4cccc(F)c4)[nH]n3)ncnc2c1 [AZD2811] + O=C(c1cc(Cc2n[nH]c(=O)c3ccccc23)ccc1F)N1CCN(C(=O)C2CC2)CC1 [Olaparib] (first compound max 1 µM, 7x7, partner max 10 µM)",-0.0206,-0.041,-0.0231,0.0106,0.0305,-0.0125,0.041,-0.0062,-0.0213,-0.0189,-0.0379,-0.0232,-0.0227,0.0456,0.0087,-0.0127,-0.0228,0.0512,-0.0325,0.0395
"CN(C)CCCOc1ccc(-c2ccc3ncc4c(c3c2)n(C2CCOCC2)c(=O)n4C)cn1 [AZD0156] + C[C@@H]1COCCN1C2=NC(=NC(=C2)C3(CC3)[S@](=N)(=O)C)C4=C5C=CNC5=NC=C4 [AZD6738] (first compound max 1 µM, 7x7, partner max 10 µM)",-0.0041,-0.0593,-0.0168,-0.0333,-0.0182,-0.0547,-0.0064,0.0059,0.0092,-0.0299,-0.0449,-0.0266,0.0247,0.117,-0.0126,-0.0138,0.0051,0.0228,-0.0479,0.133
"COc1nnc2ccc(N3CCC(c4ccc(OCCN5CCN(C)C(=O)[C@H]5C)cc4)CC3)nn12 [AZD5153] + C[C@@H]1COCCN1C2=NC(=NC(=C2)C3(CC3)[S@](=N)(=O)C)C4=C5C=CNC5=NC=C4 [AZD6738] (first compound max 1 µM, 7x7, partner max 10 µM)",-0.0638,-0.0378,0.0034,0,-0.0817,-0.0233,0.07,0.0929,-0.0647,-0.065,-0.0476,-0.0398,-0.012,-0.0167,0.0268,0.0184,0.0751,-0.0196,0.0926,0.714
